From patent US20090054403A1, “Treatment of Post-Traumatic Stress Disorder” (priority 2007, published 2009)

Experiments:
mice = test: Acute toxicity study, single oral doses; type: in vivo; conditions: single oral doses of 250, 1000, or 2500 mg/kg
Experimental: Dose selection was based on an acute toxicity study in which mice were administered single oral doses of 250, 1000, or 2500 mg/kg of Nepicastat.

[1] = test system: sympathetically-evoked functional responses; test: Sympathetically-evoked functional responses in anesthetized dogs; type: in vivo, beagle dogs
blood pressure = test: Blood pressure in conscious, restrained normotensive rats; type: in vivo, Wistar-Kyoto rats; conditions: 10 mg/kg, 4 hours after dosing
β-adrenergic receptor = test: Left ventricular [3H]CGP-12177 saturation binding after treatment; design: species or system beagle dogs; conditions: 10 mg/kg/day
Experimental: Ventricles were homogenized in 50 mM Tris-HCl, 5 mM Na2EDTA buffer (pH 7.4 at 4° C.) using a Polytron P-10 tissue disrupter (setting 10, 2×15 second bursts). Homogenates were centrifuged at 500×g for 10 minutes and the supernatants stored on ice. The pellets were washed by resuspension and centrifugation at 500×g and the supernatants combined. The combined supernatants were centrifuged at 48,000×g for 20 minutes. The pellets were washed by resuspension and centrifugation once in homogenizing buffer and twice in 50 mM Tris-HCl, 0.5 mM EDTA buffer (pH 7.4 at 4° C.). Membranes were stored at −70° C. until required. Saturation experiments were conducted using [^3H] CGP-12177 in buffer containing 50 mM Tris-HCl, 0.5 mM EDTA (pH 7.4 at 32° C.). Non-specific binding was defined by 10 uM isoproterenol. Total bound, non-specific bound and total count tubes were set up for eight concentrations of [^3H] […] Aquasol scintillation fluid was added to each vial and radioactivity determined by liquid scintillation counting. Saturation binding isotherms were analyzed after first converting total ligand concentrations to free ligand concentrations (total−bound=free). […] Tissue catecholamine levels were analyzed by comparing nepicastat-treated groups with the placebo (control) treated groups. […] Additionally, a linear orthogonal contrast was calculated for all three doses within the context of a one-way ANOVA. […]

bovine DBH = target: T1, bovine DBH (Bos taurus, UniProt P15101); test: Bovine DBH inhibition kinetics, [14C]tyramine radioactive method; type: biochemical
T1 construct: Bovine DBH from adrenal glands was obtained from Sigma Chemicals; purchased Sigma Chemicals (St Louis, Mo.); host or cells: bovine adrenal glands
Experimental: Enzyme Assay by Radioactive Method. Enzymatic activity was assayed using [^14C]tyramine as substrate and a C18 column to separate the product. The assay was performed in […] volume containing 100 mM NaAc, pH 5.2, 10 mM fumaric acid, 0.5 μM CuSO4, 4 mM ascorbic acid, 0.1 mg/ml catalase and various concentrations of tyramine. The total counts of each reaction was ˜15,000 cpm. Bovine DBH (0.18 ng for each reaction) was mixed with tyramine and inhibitor in the reaction buffer at 37° C. The reaction was initiated by the addition of ascorbate/catalase mixture and was incubated at 37° C. for 30 minutes. The reaction was stopped by the addition of […] of 25 mM EDTA, 50 mM KH2PO4, pH 2.3. Entire mixture was loaded to a C18 light load column (two combined into one) that was pre-washed with MeOH and equilibrated with 50 mM KH2PO4, pH 2.3. Elution into scintillation vials was carried out with 1 ml of KH2PO4, pH 2.3 buffer twice, followed by 2 ml of the same buffer. ReadySafe scintillation fluid (16 ml) was added to the scintillation vials and the samples were counted for ^14C radioactivity.
Nepicastat concentrations of 0, 1, 2, 4, 8 nM were used to study inhibition kinetics at the following tyramine concentrations: 0.5, 1, 2, 3, 4 mM. […] Km′ was calculated from the slopes and Y intercepts and linear regression was used to obtain Ki value.

locomotor activity = test: Infrared activity monitoring (IRAM) in MPTP-lesioned monkeys; type: in vivo, squirrel monkeys (Saimiri sciureus)
Experimental: Drug nepicastat or water (as placebo) was administered for 12 days following a minimum 2 day washout after L-Dopa dosing. Drug was administered twice daily at 10 am and 2 pm by oral gavage. Behavior was rated by IRAM and CRS. The CRS was conducted in the morning, 60 to 90 minutes after the 10 am dose of nepicastat on the last 5 days of drug treatment. Raters (one to three individuals) were blinded to the different treatment groups. IRAM assessments were preformed for 90 minutes immediately following drug administration at 2 pm on the last 5 days of drug treatment.
IRAM Locomotor activity was monitored every 10 minutes for a minimum of 90 minutes following each drug level. A higher rating is considered a faster (less parkinsonian) animal.
Statistical analysis consisted of descriptive statistics and graphing the mean of each 10 minutes data blocks of placebo and experimental drug at 1, 4, and 10 mg/kg. The graph was then examined to detect any trends. Further statistical analysis was not performed since no difference was determined from graphical analysis.

T1 sequence (P15101 whole entry): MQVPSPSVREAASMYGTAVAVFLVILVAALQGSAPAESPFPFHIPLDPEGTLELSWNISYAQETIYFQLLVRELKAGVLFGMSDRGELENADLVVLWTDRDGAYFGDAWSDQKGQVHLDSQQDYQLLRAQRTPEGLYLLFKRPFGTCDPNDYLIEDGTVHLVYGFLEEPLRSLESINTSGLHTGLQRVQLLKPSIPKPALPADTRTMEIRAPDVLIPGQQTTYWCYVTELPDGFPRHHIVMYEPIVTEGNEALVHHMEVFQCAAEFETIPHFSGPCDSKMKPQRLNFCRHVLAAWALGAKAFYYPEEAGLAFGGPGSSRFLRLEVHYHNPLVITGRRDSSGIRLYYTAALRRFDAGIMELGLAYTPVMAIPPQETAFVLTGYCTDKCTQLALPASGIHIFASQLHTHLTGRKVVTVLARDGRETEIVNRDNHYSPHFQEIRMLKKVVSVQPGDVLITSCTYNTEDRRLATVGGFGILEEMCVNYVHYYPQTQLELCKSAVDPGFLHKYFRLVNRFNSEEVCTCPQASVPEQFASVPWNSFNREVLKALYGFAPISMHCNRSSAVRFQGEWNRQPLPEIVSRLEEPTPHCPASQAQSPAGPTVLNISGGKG

SMILES: Cl.NCc1c[nH]c(=S)n1[C@H]1CCc2c(F)cc(F)cc2C1 [nepicastat, (S)-5-Aminomethyl-1-(5,7-difluoro-1,2,3,4-tetrahydronaphth-2-yl)-2,3-dihydro-2-thioxo-1H-imidazole hydrochloride]
- acute toxicity (mice): Clinical signs of toxicity and death occurred at 1000 and 2500 mg/kg
- heart rate response to i.v. tyramine challenge ([1]; 10 mg/kg/d for 4.5 days): significantly reduced the increase in heart rate
- inhibition of responses to renal nerve stimulation and carotid artery occlusion ([1]; 30 mg/kg intraduodenally, up to 5 hours): did not significantly inhibit
- decrease in pressure (blood pressure): −13 mmHg
- β-adrenergic receptor binding, treated vs vehicle left ventricular samples (β-adrenergic receptor): no difference
- type of inhibition (bovine DBH; nepicastat 1-8 nM, tyramine 0.5-4 mM): competitive with tyramine
- Ki (bovine DBH; vs tyramine, linear regression of apparent Km): 4.7 ± 0.4 nM
- activity monitoring compared to placebo (locomotor activity; 1 mg/kg/day): slower than placebo treatment
- activity monitoring compared to placebo (locomotor activity; 4 and 10 mg/kg/day, 10 to 90 minutes post-dosing): no difference
